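Abbreviation: GI50, concentration required for 50% inhibition of growth. At the TGI there is no net growth.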
Assays:
Assay in all cases: growth of human tumour cells (NCI), 384-well format
HS 578T breast = system: HS 578T breast
OVCAR-4 ovarian = system: OVCAR-4 ovarian
HL-60(TB) leukemia = system: HL-60(TB) leukemia
PC-3 prostate = system: PC-3 prostate
MDA-MB-231 breast = system: MDA-MB-231 breast
SNB-75 CNS = system: SNB-75 CNS
SF-268 CNS = system: SF-268 CNS
ACHN renal = system: ACHN renal
M14 melanoma = system: M14 melanoma
EKVX NSCLC = system: EKVX NSCLC
IGROV1 ovarian = system: IGROV1 ovarian
UACC-62 melanoma = system: UACC-62 melanoma
NCI-H522 lung = system: NCI-H522 lung
MCF7 breast = system: MCF7 breast
SNB-19 CNS = system: SNB-19 CNS
LOX IMVI melanoma = system: LOX IMVI melanoma
OVCAR-5 ovarian = system: OVCAR-5 ovarian
DU-145 prostate = system: DU-145 prostate
UACC-257 melanoma = system: UACC-257 melanoma
HOP-62 NSCLC = system: HOP-62 NSCLC
HCT-116 colon = system: HCT-116 colon
RPMI-8226 leukemia = system: RPMI-8226 leukemia
CAKI-1 renal = system: CAKI-1 renal
786-0 renal = system: 786-0 renal
NCI-H460 NSCLC = system: NCI-H460 NSCLC
SK-MEL-2 melanoma = system: SK-MEL-2 melanoma
HCC-2998 colon = system: HCC-2998 colon
T-47D breast = system: T-47D breast
MALME-3M melanoma = system: MALME-3M melanoma
BT-549 breast = system: BT-549 breast
HOP-92 NSCLC = system: HOP-92 NSCLC
UO-31 renal = system: UO-31 renal
HT29 colon = system: HT29 colon
CCRF-CEM leukemia = system: CCRF-CEM leukemia
SR leukemia = system: SR leukemia
SW-620 colon = system: SW-620 colon
MDA-MB-435 melanoma = system: MDA-MB-435 melanoma
COLO 205 colon = system: COLO 205 colon
K-562 leukemia = system: K-562 leukemia
SK-OV-3 ovarian = system: SK-OV-3 ovarian
RXF 393 renal = system: RXF 393 renal
A549 NSCLC = system: A549 NSCLC
NCI-H226 lung = system: NCI-H226 lung
NCI-H322M lung = system: NCI-H322M lung
MDA-MB-468 breast = system: MDA-MB-468 breast
SN12C renal = system: SN12C renal
NCI-H23 lung = system: NCI-H23 lung

Cc1cc(C)c(CNC(=O)c2cc(-c3ccc(CN4CCOCC4)cc3)cc3c2cnn3C2CCCC2)c(=O)[nH]1
GI50 (HS 578T breast): 2.92 µM | TGI (HS 578T breast): 7.44 µM | GI50 (OVCAR-4 ovarian): 12.9 µM | TGI (OVCAR-4 ovarian): 25.8 µM | GI50 (HL-60(TB) leukemia): 4.13 µM | TGI (HL-60(TB) leukemia): 12.6 µM | GI50 (PC-3 prostate): 8.37 µM | TGI (PC-3 prostate): 20.8 µM | GI50 (MDA-MB-231 breast): 8.35 µM | TGI (MDA-MB-231 breast): 21.4 µM | GI50 (SNB-75 CNS): 7.97 µM | TGI (SNB-75 CNS): 21.2 µM | GI50 (SF-268 CNS): 6.37 µM | TGI (SF-268 CNS): 13.6 µM | GI50 (ACHN renal): 10.3 µM | TGI (ACHN renal): 23.9 µM | GI50 (M14 melanoma): 6.87 µM | TGI (M14 melanoma): 17.6 µM | GI50 (EKVX NSCLC): 3.41 µM | TGI (EKVX NSCLC): 21.6 µM | GI50 (IGROV1 ovarian): 1.02 µM | TGI (IGROV1 ovarian): 25 µM | GI50 (UACC-62 melanoma): 12.3 µM | TGI (UACC-62 melanoma): 24.9 µM | GI50 (NCI-H522 lung): 15.3 µM | TGI (NCI-H522 lung): 28.7 µM | GI50 (MCF7 breast): 6.19 µM | TGI (MCF7 breast): 17.8 µM | GI50 (SNB-19 CNS): 9.84 µM | TGI (SNB-19 CNS): 23.4 µM | GI50 (LOX IMVI melanoma): 7.45 µM | TGI (LOX IMVI melanoma): 20.7 µM | GI50 (OVCAR-5 ovarian): 13.1 µM | TGI (OVCAR-5 ovarian): 26 µM | GI50 (DU-145 prostate): 13.5 µM | TGI (DU-145 prostate): 27.6 µM | GI50 (UACC-257 melanoma): 2.23 µM | TGI (UACC-257 melanoma): 4.96 µM | GI50 (HOP-62 NSCLC): 6.39 µM | TGI (HOP-62 NSCLC): 17.4 µM | GI50 (HCT-116 colon): 7.13 µM | TGI (HCT-116 colon): 19.5 µM | GI50 (RPMI-8226 leukemia): 2.11 µM | TGI (RPMI-8226 leukemia): 6.54 µM | GI50 (CAKI-1 renal): 9.04 µM | TGI (CAKI-1 renal): 22.2 µM | GI50 ([…]-0 renal): 5.82 µM | TGI (786-0 renal): 16.9 µM | GI50 (NCI-H460 NSCLC): 7.72 µM | TGI (NCI-H460 NSCLC): 20.5 µM | GI50 (SK-MEL-2 melanoma): 13 µM | TGI (SK-MEL-2 melanoma): 25.7 µM | GI50 (HCC-2998 colon): 6.61 µM | TGI (HCC-2998 colon): 17.7 µM | GI50 (T-47D breast): 0.986 µM | TGI (T-47D breast): 10.6 µM | GI50 (MALME-3M melanoma): 5.49 µM | TGI (MALME-3M melanoma): 15.9 µM | GI50 (BT-549 breast): 8.98 µM | TGI (BT-549 breast): 22.1 µM | GI50 (HOP-92 NSCLC): 6.29 µM | TGI (HOP-92 NSCLC): 17.1 µM | GI50 (UO-31 renal): 5.87 µM | TGI (UO-31 renal): 20.6 µM | GI50 (HT29 colon): 2.3 µM | TGI (HT29 colon): 5.14 µM | GI50 (CCRF-CEM leukemia): 3.42 µM | TGI (CCRF-CEM leukemia): 8.99 µM | GI50 (SR leukemia): 2.41 µM | TGI (SR leukemia): 5.85 µM | GI50 (SW-620 colon): 13.2 µM | TGI (SW-620 colon): 26.3 µM | GI50 (MDA-MB-435 melanoma): 12 µM | TGI (MDA-MB-435 melanoma): 25.3 µM | GI50 (COLO 205 colon): 8.25 µM | TGI (COLO 205 colon): 20.5 µM | GI50 (K-562 leukemia): 4.84 µM | TGI (K-562 leukemia): 16.5 µM | GI50 (SK-OV-3 ovarian): 13.4 µM | TGI (SK-OV-3 ovarian): 26.4 µM | GI50 (RXF 393 renal): 5.49 µM | TGI (RXF 393 renal): 15.8 µM | GI50 (A549 NSCLC): 6.65 µM | TGI (A549 NSCLC): 17.7 µM | GI50 (NCI-H226 lung): 12.9 µM | TGI (NCI-H226 lung): 25.9 µM | GI50 (NCI-H322M lung): 12.1 µM | TGI (NCI-H322M lung): 24.8 µM | GI50 (MDA-MB-468 breast): 0.0189 µM | TGI (MDA-MB-468 breast): 0.0459 µM | GI50 (SN12C renal): 12.3 µM | TGI (SN12C renal): 24.9 µM | GI50 (NCI-H23 lung): 14.3 µM | TGI (NCI-H23 lung): 27.5 µM
